The results in this text go back to US8901315B2, “Thienopyrazole derivative having PDE7 inhibitory activity” (Daiichi Sankyo Company, Limited, priority 2004, dated 2014).

What is called IC50 is the concentration at which inhibition is half-maximal.

Assay [1] addresses PDE 4 (phosphodiesterase IV). As to the kind of experiment: PDE 4 inhibiting effect (3H-cAMP hydrolysis, PDE 4 active fraction from Balb/c mouse liver). Format: biochemical. Conditions: PDE 4 fraction from Balb/c mice liver, 0.064 μM cAMP, 2 hours at 25° C.; read-out: PDE4 IC50. In outline: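 Activity was measured as 3H-cAMP hydrolysis, with Sephadex-QAE added after the reaction. The enzyme was a PDE4-active fraction from 12-week male Balb/c mouse liver, taken from the ultracentrifuged soluble fraction by DEAE sepharose chromatography (0.05-1 M sodium acetate gradient, pH 6.5 buffer).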

The target of assay [2] is PDE 7 (phosphodiesterase VII) (Homo sapiens (Human), UniProt Q13946). As to the kind of experiment: PDE 7 inhibiting effect (3H-cAMP hydrolysis, PDE 7 active fraction from MOLT-4 cells). Format: biochemical. Conditions: PDE 7 fraction from MOLT-4 cells, 0.064 μM cAMP, 10 μM rolipram, 2 hours at 25° C.; read-out: PDE7 IC50. Put shortly: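 ³H-cAMP hydrolysis by a PDE7-active fraction was followed, and the reaction was worked up with a Sephadex-QAE suspension (10 mM HEPES-Na, pH 7.0). Enzyme came from MOLT-4 cell soluble extract (pH 7.5 Tris buffer, 100,000×G supernatant), fractionated by HiTrap Q anion exchange with a 0–0.8 M NaCl gradient.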
PDE 7 (phosphodiesterase VII), sequence (Q13946 whole entry): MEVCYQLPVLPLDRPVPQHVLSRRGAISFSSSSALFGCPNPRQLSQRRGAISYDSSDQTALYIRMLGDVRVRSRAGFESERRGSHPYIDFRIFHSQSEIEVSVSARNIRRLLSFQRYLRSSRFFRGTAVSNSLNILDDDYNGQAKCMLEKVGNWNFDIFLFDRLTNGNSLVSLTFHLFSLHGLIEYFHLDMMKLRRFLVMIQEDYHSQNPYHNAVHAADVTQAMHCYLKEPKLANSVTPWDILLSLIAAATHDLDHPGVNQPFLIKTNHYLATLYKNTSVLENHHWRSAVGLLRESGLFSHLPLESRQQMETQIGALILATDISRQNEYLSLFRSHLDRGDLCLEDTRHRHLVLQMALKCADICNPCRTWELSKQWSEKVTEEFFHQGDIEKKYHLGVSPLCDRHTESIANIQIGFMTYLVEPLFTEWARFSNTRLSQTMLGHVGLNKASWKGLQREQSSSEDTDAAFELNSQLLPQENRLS

With `Cc1nn(C2CCCCC2)c2sc(C(=O)Nc3ccc(C(=O)N4CCC(O)CC4)nc3)cc12` [Example 378, 1-Cyclohexyl-N-{6-[(4-hydroxy-1-piperidinyl)carbonyl]-3-pyridinyl}-3-methyl-1H-thieno[2,3-c]pyrazole-5-carboxamide], the IC50 came out at 2500 nM in assay [1] and 44 nM in assay [2].

Take `Cc1nn(C2CCCCC2)c2sc(C(=O)Nc3ccc(C(=O)NCCO)nc3)cc12` [Example 379, 1-Cyclohexyl-N-(6-{[(2-hydroxyethyl)amino]carbonyl}-3-pyridinyl)-3-methyl-1H-thieno[2,3-c]pyrazole-5-carboxamide]: the IC50 in assay [1] was found to be 1200 nM; in assay [2] it was 13 nM.

With `Cc1nn(C2CCCCC2)c2sc(C(=O)Nc3ccc(C(=O)N4CCN(C)CC4)nc3)cc12` [Example 380, 1-Cyclohexyl-3-methyl N-{6-[(4-methyl-1-piperazinyl)carbonyl]-3-pyridinyl}-1H-thieno[2,3-c]pyrazole-5-carboxamide], the concentration for half-maximal inhibition (IC50) in assay [1] was 1500 nM; in assay [2], 56 nM.

For `Cc1nn(C2CCCCC2)c2sc(C(=O)Nc3ccc(C(=O)NCCN(C)C)nc3)cc12` [Example 381], the IC50 in assay [1] came out at 670 nM; in assay [2], 22 nM.

For `Cc1nn(C2CCCCC2)c2sc(C(=O)Nc3ccc(C(=O)N[C@H]4CC[C@H](O)CC4)nc3)cc12` [Example 382, 1-Cyclohexyl-N-(6-{[(trans-4-hydroxycyclohexyl)amino]carbonyl}-3-pyridinyl)-3-methyl-1H-thieno[2,3-c]pyrazole-5-carboxamide], the IC50 in assay [1] is 620 nM; in assay [2], 25 nM.

Take `Cc1nn(C2CCCCC2)c2sc(C(=O)Nc3ccc(C(=O)N4CCCN(C)CC4)nc3)cc12` [Example 383]: the concentration for half-maximal inhibition (IC50) in assay [1] stood at 2400 nM; in assay [2] it was 74 nM.

In the case of `CC(=O)N1CCN([C@H]2CC[C@H](NC(=O)c3cc4c(C)nn(C5CCOCC5)c4s3)CC2)CC1` [Example 395, N-[trans-4-(4-Acetyl-1-piperazinyl)cyclohexyl]-3-methyl-1-tetrahydro-2H-pyran-4-yl-1H-thieno[2,3-c]pyrazole-5-carboxamide], the results for the IC50 in assay [1] and in assay [2] were 1400 nM and 19 nM, respectively.

As to `Cc1nn(C2CCOCC2)c2sc(C(=O)N[C@H]3CC[C@H](N4CCN(S(C)(=O)=O)CC4)CC3)cc12` [Example 396, 3-Methyl-N-{trans-4-[4-(methylsulfonyl)-1-piperazinyl]cyclohexyl}-1-tetrahydro-2H-pyran-4-yl-1H-thieno[2,3-c]pyrazole-5-carboxamide], the IC50 in assay [1] was 900 nM; in assay [2], 22 nM.

Consider `Cc1nn(C2CCOCC2)c2sc(C(=O)N[C@H]3CC[C@H](N4C[C@@H](C)O[C@@H](C)C4)CC3)cc12` [Example 402, N-[trans-4-(cis-2,6-Dimethylmorpholinyl)cyclohexyl]-3-methyl-1-tetrahydro-2H-pyran-4-yl-1H-thieno[2,3-c]pyrazole-5-carboxamide], for which the IC50 amounted to 7300 nM in assay [1] and 19 nM in assay [2].

On to `Cc1nn(C2CCCCC2)c2sc(C(=O)Nc3ccc(CO)nc3)cc12` [Example 404, 1-Cyclohexyl-N-[6-(hydroxymethyl)-3-pyridinyl]-3-methyl-1H-thieno[2,3-c]pyrazole-5-carboxamide], for which the IC50 in assay [1] was 3500 nM; in assay [2], 32 nM.

Consider `Cc1nn(C2CCCCC2)c2sc(C(=O)Nc3ccc(CN4CCC(O)CC4)nc3)cc12` [Example 413, 1-Cyclohexyl-N-{6-[(4-hydroxy-1-piperidinyl)methyl]-3-pyridinyl}-3-methyl-1H-thieno[2,3-c]pyrazole-5-carboxamide], for which the IC50 in assay [1] turned out to be 2500 nM; in assay [2], 30 nM.

Turning to `CC(=O)N1CCN(Cc2ccc(NC(=O)c3cc4c(C)nn(C5CCCCC5)c4s3)cn2)CC1` [Example 414, N-{6-[(4-Acetyl-1-piperazinyl)methyl]-3-pyridinyl}-1-cyclohexyl-3-methyl-1H-thieno[2,3-c]pyrazole-5-carboxamide], the IC50 in assay [1] was 2800 nM; in assay [2], 35 nM.

In the case of `Cc1nn(C2CCOCC2)c2sc(C(=O)N[C@H]3CC[C@H](N4CCN(C)CC4=O)CC3)cc12` [Example 415, 3-Methyl-N-[trans-4-(4-methyl-2-oxo-piperazinyl)cyclohexyl]-1-tetrahydro-2H-pyran-4-yl-1H-thieno[2,3-c]pyrazole-5-carboxamide], the IC50 in assay [1] worked out at 5100 nM; in assay [2], 93 nM.

For `Cc1nn(C2CCCCC2)c2sc(C(=O)N[C@H]3CC[C@H](N4CCN(C)CC4=O)CC3)cc12` [Example 416, 1-Cyclohexyl-3-methyl-N-[trans-4-(4-methyl-2-oxo-1-piperazinyl)-cyclohexyl]-1H-thieno[2,3-c]pyrazole-5-carboxamide], the concentration for half-maximal inhibition (IC50) in assay [1] worked out at 1300 nM; in assay [2] it was 17 nM.

In the case of `Cc1nn(C2CCOCC2)c2sc(C(=O)N[C@H]3CC[C@H](N4CCNC(=O)C4)CC3)cc12` [Example 417, 3-Methyl-N-[trans-4-(3-oxo-piperazinyl)cyclohexyl]-1-tetrahydro-2H-pyran-4-yl-1H-thieno[2,3-c]pyrazole-5-carboxamide], the results for the half-maximal inhibitory concentration (IC50) in assay [1] and in assay [2] were 7000 nM and 63 nM, respectively.

Turning to `Cc1nn(C2CCOCC2)c2sc(C(=O)N[C@H]3CC[C@H](N4CCN(C)C(=O)C4)CC3)cc12` [Example 419, 3-Methyl-N-[trans-4-(4-methyl-3-oxo-1-piperazinyl)cyclohexyl]-1-tetrahydro-2H-pyran-4-yl-1H-thieno[2,3-c]pyrazole-5-carboxamide], the values for the IC50 in assay [1] and in assay [2] were 5700 nM and 29 nM, respectively.

Regarding `Cc1nn(C2CCOCC2)c2sc(C(=O)N[C@H]3CC[C@H](N4CCC(CO)CC4)CC3)cc12` [Example 423], the figures for the half-maximal inhibitory concentration (IC50) in assay [1] and in assay [2] were 8100 nM and 72 nM, respectively.

Consider `Cc1nn(C2CCOCC2)c2sc(C(=O)N[C@H]3CC[C@H](N4CCC(O)CC4)CC3)cc12` [Example 425, N-[trans-4-(4-Hydroxy-1-piperidinyl)cyclohexyl]-3-methyl-1-tetrahydro-2H-pyran-4-yl-1H-thieno[2,3-c]pyrazole-5-carboxamide], for which the IC50 in assay [1] was determined as 13000 nM; in assay [2] it was 90 nM.

Turning to `Cc1nn(C2CCOCC2)c2sc(C(=O)N[C@H]3CC[C@H](N4CCC(C(=O)N(C)C)CC4)CC3)cc12` [Example 428, N-(trans-4-{4-[(Dimethylamino)carbonyl]-1-piperidinyl}cyclohexyl)-3-methyl-1-tetrahydro-2H-pyran-4-yl-1H-thieno[2,3-c]pyrazole-5-carboxamide], the results for the 50% inhibitory concentration (IC50) in assay [1] and in assay [2] were 9700 nM and 50 nM, respectively.

For the compound `CCN1CCN([C@H]2CC[C@H](NC(=O)c3cc4c(C)nn(C5CCOCC5)c4s3)CC2)CC1=O` [Example 436, N-[trans-4-(4-Ethyl-3-oxo-1-piperazinyl)cyclohexyl]-3-methyl-1-tetrahydro-2H-pyran-4-yl-1H-thieno[2,3-c]pyrazole-5-carboxamide], the IC50 came out at 7200 nM in assay [1] and 30 nM in assay [2].

With `Cc1nn(C2CCOCC2)c2sc(C(=O)Nc3ccc(N4CCN(C)CC4=O)cc3)cc12` [Example 440, 3-Methyl-N-[4-(4-methyl-2-oxo-piperazinyl)phenyl]-1-tetrahydro-2H-pyran-4-yl-1H-thieno[2,3-c]pyrazole-5-carboxamide], the IC50 in assay [1] was determined as 28000 nM; in assay [2], 97 nM.
